Where two headings read alike, the source gives them in different places. Bridge positions count the residues as written; N and C are the ends. Square brackets hold non-standard residues; d marks the D form. Peptide text beside a SMILES is read from it. * marks the point of attachment. CH3O(CH2CH2O)11CH2CH2CO = COCCOCCOCCOCCOCCOCCOCCOCCOCCOCCOCCOCCC(=O)*; Tle = CC(C)(C)[C@H](N)C(=O)O
Tests used:
[1] = biological target: neutral endopeptidase (NEP) (Homo sapiens, UniProt P08473); test: in vitro; settings: human, pH 7
How it was run: (§1)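 Recombinant human NEP (1 ug/mL final) incubated with 100 uM CNP variant in 0.1 M Tris, pH 7, at 37° C for various times, then quenched with EDTA (10 mM final) and heat. Samples reduced and analysed by HPLC and mass spectrometry. Half-life derived from loss of intact variant over time.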

[2] = biological target: Recombinant human NEP (Homo sapiens, UniProt P08473); test: in vitro
How it was run: as §1

[3] = biological target: T1, NPR-B (Mus musculus, UniProt Q6VVW5); test: Stimulation of cGMP production in NIH3T3 cells; format: cell-based, Murine; settings: for cGMP response relative to 1 uM CNP22 (%) at 0.01 µM: read-out: cGMP Response rel. to 1 uM CNP22, 10 nM; for cGMP response relative to 1 uM CNP22 (%) at 1 µM: read-out: cGMP Response rel. to 1 uM CNP22, 1 uM
T1 construct: Murine NIH3T3 cells express endogenously the CNP signaling receptor, NPR-B; endogenous in cells; host or cells: NIH3T3 (murine fibroblasts)
T1 sequence (Q6VVW5 17-1047): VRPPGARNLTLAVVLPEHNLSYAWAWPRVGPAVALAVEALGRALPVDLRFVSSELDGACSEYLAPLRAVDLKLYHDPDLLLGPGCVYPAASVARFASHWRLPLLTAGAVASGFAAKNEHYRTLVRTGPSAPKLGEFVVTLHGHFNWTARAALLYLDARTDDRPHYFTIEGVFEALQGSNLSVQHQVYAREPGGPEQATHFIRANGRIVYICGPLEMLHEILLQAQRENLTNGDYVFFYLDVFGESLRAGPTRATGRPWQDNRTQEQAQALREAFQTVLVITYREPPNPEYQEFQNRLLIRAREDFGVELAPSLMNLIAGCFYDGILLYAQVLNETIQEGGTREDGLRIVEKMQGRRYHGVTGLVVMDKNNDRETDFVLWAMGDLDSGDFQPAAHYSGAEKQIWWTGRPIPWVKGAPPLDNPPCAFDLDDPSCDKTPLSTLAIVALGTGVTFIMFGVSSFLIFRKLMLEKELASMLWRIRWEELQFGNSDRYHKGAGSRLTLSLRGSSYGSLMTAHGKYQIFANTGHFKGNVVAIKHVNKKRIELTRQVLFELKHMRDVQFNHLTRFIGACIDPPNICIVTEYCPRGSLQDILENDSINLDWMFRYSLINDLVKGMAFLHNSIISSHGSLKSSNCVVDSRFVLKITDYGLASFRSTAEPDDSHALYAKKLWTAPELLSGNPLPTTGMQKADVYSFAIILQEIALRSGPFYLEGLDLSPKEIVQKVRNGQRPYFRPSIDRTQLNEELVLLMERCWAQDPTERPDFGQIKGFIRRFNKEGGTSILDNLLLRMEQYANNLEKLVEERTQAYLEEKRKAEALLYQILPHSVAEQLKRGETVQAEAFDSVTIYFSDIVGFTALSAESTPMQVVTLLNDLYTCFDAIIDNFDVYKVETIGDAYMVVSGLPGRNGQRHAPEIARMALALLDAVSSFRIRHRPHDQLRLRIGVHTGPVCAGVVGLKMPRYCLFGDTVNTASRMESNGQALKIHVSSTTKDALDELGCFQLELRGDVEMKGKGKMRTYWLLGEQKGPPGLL

[4] = NIH3T3 cells, 10 nM natriuretic peptide, normalized to cell number and cGMP production with 1 uM wtCNP22
[5] = NIH3T3 cells, 1 uM natriuretic peptide, normalized to cell number and cGMP production with 1 uM wtCNP22
[6] = in vitro NEP cleavage assay, assay period 160 minutes

Sequence of Recombinant human NEP (P08473 whole entry): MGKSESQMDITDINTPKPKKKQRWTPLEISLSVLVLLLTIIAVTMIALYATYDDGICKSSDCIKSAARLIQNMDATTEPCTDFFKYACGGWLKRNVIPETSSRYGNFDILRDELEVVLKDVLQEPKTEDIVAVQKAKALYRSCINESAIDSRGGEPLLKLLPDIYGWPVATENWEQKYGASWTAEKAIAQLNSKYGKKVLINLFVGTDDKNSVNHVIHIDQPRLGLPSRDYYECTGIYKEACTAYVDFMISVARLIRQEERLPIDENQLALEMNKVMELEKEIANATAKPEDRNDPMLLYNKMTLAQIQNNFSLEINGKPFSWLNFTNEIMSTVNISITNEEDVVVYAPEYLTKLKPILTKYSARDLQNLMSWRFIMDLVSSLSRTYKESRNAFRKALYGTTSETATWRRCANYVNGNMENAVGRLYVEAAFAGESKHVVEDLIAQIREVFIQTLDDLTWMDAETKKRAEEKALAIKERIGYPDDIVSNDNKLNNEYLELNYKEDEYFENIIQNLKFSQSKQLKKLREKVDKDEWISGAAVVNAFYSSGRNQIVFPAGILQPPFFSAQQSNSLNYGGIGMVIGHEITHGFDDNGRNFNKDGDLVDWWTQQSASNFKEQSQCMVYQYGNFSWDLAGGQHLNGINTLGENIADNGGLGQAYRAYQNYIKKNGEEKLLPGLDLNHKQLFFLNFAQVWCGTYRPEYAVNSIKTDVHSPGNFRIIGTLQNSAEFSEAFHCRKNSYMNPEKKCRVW
Sequence of neutral endopeptidase (NEP) (P08473 whole entry): as above

Compound	half-life at 100 uM [1]	resistance to NEP cleavage/degradation (in words) [2]	cGMP response relative to 1 uM CNP22 (%) at 0.01 µM [3, 4]	cGMP response relative to 1 uM CNP22 (%) at 1 µM [3, 5]	resistance to NEP cleavage/degradation (in words) [2, 6]	cGMP response relative to 1 uM CNP22 (%) at 0.01 µM ([3]; NIH3T3, […])	cGMP response relative to 1 uM CNP22 (%) at 1 µM ([3]; NIH3T3, […])	half-life at 100 uM ([1]; recombinant human neutral endopeptidase (NEP))	resistance to cleavage at the Cys6-Phe7 bond relative to wtCNP22 [2]	NPR-B stimulation activity / cGMP production compared with wtCNP22 (in words) ([3]; NIH3T3 cells)
CC[C@H](C)[C@@H]1NC(=O)[C@H](CCCNC(=N)N)NC(=O)[C@H](CC(=O)O)NC(=O)[C@H](CC(C)C)NC(=O)[C@H](CCCCN)NC(=O)[C@H](CC(C)C)NC(=O)CNC(=O)[C@H](Cc2ccccc2)NC(=O)[C@@H](NC(=O)CNC(=O)[C@H](CCCNC(=N)N)NC(=O)[C@H](CO)NC(=O)[C@H](CC(C)C)NC(=O)CNC(=O)[C@H](CCC(N)=O)NC(=O)[C@H](CCC(N)=O)NC(=O)[C@H](CC(N)=O)NC(=O)[C@H](C)NC(=O)CNC(=O)[C@@H](NC(=O)[C@H](Cc2ccc(O)cc2)NC(=O)[C@@H](NC(=O)[C@H](CCC(N)=O)NC(=O)[C@@H]2CCCN2C(=O)[C@H](CCC(=O)O)NC(=O)[C@H](CCCNC(=N)N)NC(=O)[C@@H]2CCCN2C(=O)[C@H](CCC(N)=O)NC(=O)CN)C(C)C)[C@@H](C)O)CSSC[C@@H](C(=O)O)NC(=O)CNC(=O)[C@H](CC(C)C)NC(=O)CNC(=O)[C@H](CO)NC(=O)[C@H](CCSC)NC(=O)[C@H](CO)NC(=O)CNC1=O [CK] (H-GQPREPQVYTGANQQGLSRGCFGLKLDRIGSMSGLGC-OH; disulfide 21-37 (inferred); N-terminus and C-terminus assumed)	≥ 2.67 h	most resistant to NEP degradation	2%	32%	–	–	–	–	–	–
CC[C@H](C)[C@@H]1NC(=O)[C@H](CCCNC(=N)N)NC(=O)[C@H](CC(=O)O)NC(=O)[C@H](CC(C)C)NC(=O)[C@H](CCCCN)NC(=O)[C@H](CC(C)C)NC(=O)CNC(=O)[C@H](Cc2ccccc2)NC(=O)[C@@H](NC(=O)CNC(=O)[C@H](CCCCN)NC(=O)[C@H](CO)NC(=O)[C@H](CC(C)C)NC(=O)CNC(=O)CCOCCOCCOCCOCCOCCOCCOCCOCCOCCOCCOCCOCCOCCOCCOCCOCCOCCOCCOCCOCCOCCOCCOCCOC)CSSC[C@@H](C(=O)O)NC(=O)CNC(=O)[C@H](CC(C)C)NC(=O)CNC(=O)[C@H](CO)NC(=O)[C@H](CCSC)NC(=O)[C@H](CO)NC(=O)CNC1=O [PEO24-CNP22]	> 2.67 h	–	8 ± 5%	46 ± 10%	resistant to NEP degradation over the assay period of 160 minutes	–	–	–	–	–
CC[C@H](C)[C@@H]1NC(=O)[C@H](CCCNC(=N)N)NC(=O)[C@H](CC(=O)O)NC(=O)[C@H](CC(C)C)N(C)C(=O)[C@H](CCCCN)NC(=O)[C@H](CC(C)C)N(C)C(=O)CNC(=O)[C@H](Cc2ccccc2)NC(=O)[C@@H](NC(=O)CNC(=O)[C@H](CCCCN)NC(=O)[C@H](CO)NC(=O)[C@H](CC(C)C)NC(=O)CN)CSSC[C@@H](C(=O)O)NC(=O)CNC(=O)[C@H](CC(C)C)NC(=O)CNC(=O)[C@H](CO)NC(=O)[C@H](CCSC)NC(=O)[C@H](CO)NC(=O)CNC1=O [M]	> 2.67 h	–	–	–	greatest resistance to NEP cleavage	1%	11%	–	–	–
CC[C@H](C)[C@@H]1NC(=O)[C@H](CCCNC(=N)N)NC(=O)[C@H](CC(=O)O)NC(=O)[C@H](CC(C)C)NC(=O)[C@H](CCCCN)NC(=O)[C@H](CC(C)C)NC(=O)CNC(=O)[C@H](Cc2ccccc2)NC(=O)[C@@H](NC(=O)CNC(=O)[C@H](CCCNC(=N)N)NC(=O)[C@H](CO)NC(=O)[C@H](CC(C)C)NC(=O)CN)CSSC[C@@H](C(=O)O)NC(=O)CNC(=O)[C@H](CC(C)C)NC(=O)CNC(=O)[C@H](CO)NC(=O)[C@H](CCSC)NC(=O)[C@H](CO)NC(=O)[C@H](CO)NC1=O [BK] (H-GLSRGCFGLKLDRISSMSGLGC-OH; disulfide 6-22 (inferred); N-terminus and C-terminus assumed)	≥ 2.67 h	–	–	–	greatest resistance to NEP cleavage	13 ± 1%	71 ± 11%	–	–	–
CC[C@H](C)[C@@H]1NC(=O)[C@H](CCCNC(=N)N)NC(=O)[C@H](CC(=O)O)NC(=O)[C@H](CC(C)C)NC(=O)[C@H](CCCCN)NC(=O)[C@H](CC(C)C)NC(=O)[C@H](C(C)(C)C)NC(=O)[C@H](Cc2ccccc2)NC(=O)[C@@H](NC(=O)CNC(=O)[C@H](CCCCN)NC(=O)[C@H](CO)NC(=O)[C@H](CC(C)C)NC(=O)CN)CSSC[C@@H](C(=O)O)NC(=O)CNC(=O)[C@H](CC(C)C)NC(=O)CNC(=O)[C@H](CO)NC(=O)[C@H](CCSC)NC(=O)[C@H](CO)NC(=O)CNC1=O [F] (H-GLSKGCF[Tle]LKLDRIGSMSGLGC-OH; disulfide 6-22 (inferred); N-terminus and C-terminus assumed)	–	–	2%	18%	–	–	–	1.33 h	resistance or improved resistance	–
CC[C@H](C)[C@@H]1NC(=O)[C@H](CCCNC(=N)N)NC(=O)[C@H](CC(=O)O)NC(=O)[C@H](CC(C)C)NC(=O)[C@H](CCCCN)NC(=O)[C@H](CC(C)C)NC(=O)CNC(=O)[C@H](Cc2ccccc2)NC(=O)[C@@H](NC(=O)CNC(=O)[C@H](CCCNC(=N)N)NC(=O)[C@H](CO)NC(=O)[C@H](CC(C)C)NC(=O)CNC(=O)[C@H](CCCNC(=N)N)NC(=O)[C@H](CCCNC(=N)N)NC(=O)[C@H](CC(N)=O)NC(=O)[C@H](C)NC(=O)CNC(=O)CCOCCOCCOCCOCCOCCOCCOCCOCCOCCOCCOCCOC)CSSC[C@@H](C(=O)O)NC(=O)CNC(=O)[C@H](CC(C)C)NC(=O)CNC(=O)[C@H](CO)NC(=O)[C@H](CCSC)NC(=O)[C@H](CO)NC(=O)CNC1=O [PEO12-GANRR-CNP22, K4R (CNP27)] ({CH3O(CH2CH2O)11CH2CH2CO}-GANRRGLSRGCFGLKLDRIGSMSGLGC-OH; disulfide 11-27; C-terminus assumed)	> 2.67 h	much more resistant to NEP degradation than CNP22	40 ± 2%	99 ± 13%	–	–	–	–	–	substantially the same NPR-B stimulation activity as CNP22
CC[C@H](C)[C@@H]1NC(=O)[C@H](CCCNC(=N)N)NC(=O)[C@H](CC(=O)O)NC(=O)[C@H](CC(C)C)NC(=O)[C@H](CCCCN)NC(=O)[C@H](CC(C)C)NC(=O)CNC(=O)[C@H](Cc2ccccc2)NC(=O)[C@@H](NC(=O)CNC(=O)[C@H](CCCNC(=N)N)NC(=O)[C@H](CO)NC(=O)[C@H](CC(C)C)NC(=O)CNC(=O)[C@H](CCC(N)=O)NC(=O)[C@H](CCC(N)=O)NC(=O)[C@H](CC(N)=O)NC(=O)[C@H](C)NC(=O)CNC(=O)[C@@H](NC(=O)[C@H](CO)NC(=O)[C@@H](NC(=O)[C@H](CO)NC(=O)[C@@H](NC(=O)[C@H](CCC(N)=O)NC(=O)[C@@H]2CCCN2C(=O)[C@@H](NC(=O)CN)C(C)C)C(C)C)[C@@H](C)O)[C@@H](C)O)CSSC[C@@H](C(=O)O)NC(=O)CNC(=O)[C@H](CC(C)C)NC(=O)CNC(=O)[C@H](CO)NC(=O)[C@H](CCSC)NC(=O)[C@H](CO)NC(=O)CNC1=O [CL] (H-GVPQVSTSTGANQQGLSRGCFGLKLDRIGSMSGLGC-OH; disulfide 20-36 (inferred); N-terminus and C-terminus assumed)	> 2.67 h	most resistant to NEP degradation	3%	35%	–	–	–	–	–	–
CC[C@H](C)[C@@H]1NC(=O)[C@H](CCCNC(=N)N)NC(=O)[C@H](CC(=O)O)NC(=O)[C@H](CC(C)C)N(C)C(=O)[C@H](CCCCN)NC(=O)[C@H](CC(C)C)N(C)C(=O)CNC(=O)[C@H](Cc2ccccc2)NC(=O)[C@@H](NC(=O)CNC(=O)[C@H](CCCCN)NC(=O)[C@H](CO)NC(=O)[C@H](CC(C)C)NC(=O)CN)CSSC[C@@H](C(=O)O)NC(=O)CNC(=O)[C@H](CC(C)C)N(C)C(=O)CNC(=O)[C@H](CO)NC(=O)[C@H](CCSC)NC(=O)[C@H](CO)NC(=O)CNC1=O [L]	0.5 h	–	–	–	significantly shorter half-life	18%	10%	–	–	–
